Source: publication PMC12093506, “Synthesis, characterization, and in vitro and in silico α-glucosidase inhibitory evolution of novel N′-(2-cyclopentyl-2-phenylacetyl)cinnamohydrazide derivatives” (RSC Advances, 2025)
pIC50, pKi: −log10 of the molar value. Where two headings read alike, the source gives them in different places.

How the values were obtained:
[1] = target: T1, α-glucosidase (maltase) enzyme from Yeast (Saccharomyces cerevisiae, UniProt P53341); assay: biochemical; assay type: biochemical
T1 construct: purchased Sisco Research Laboratories Pvt; Ltd
T1 sequence (P53341 whole entry): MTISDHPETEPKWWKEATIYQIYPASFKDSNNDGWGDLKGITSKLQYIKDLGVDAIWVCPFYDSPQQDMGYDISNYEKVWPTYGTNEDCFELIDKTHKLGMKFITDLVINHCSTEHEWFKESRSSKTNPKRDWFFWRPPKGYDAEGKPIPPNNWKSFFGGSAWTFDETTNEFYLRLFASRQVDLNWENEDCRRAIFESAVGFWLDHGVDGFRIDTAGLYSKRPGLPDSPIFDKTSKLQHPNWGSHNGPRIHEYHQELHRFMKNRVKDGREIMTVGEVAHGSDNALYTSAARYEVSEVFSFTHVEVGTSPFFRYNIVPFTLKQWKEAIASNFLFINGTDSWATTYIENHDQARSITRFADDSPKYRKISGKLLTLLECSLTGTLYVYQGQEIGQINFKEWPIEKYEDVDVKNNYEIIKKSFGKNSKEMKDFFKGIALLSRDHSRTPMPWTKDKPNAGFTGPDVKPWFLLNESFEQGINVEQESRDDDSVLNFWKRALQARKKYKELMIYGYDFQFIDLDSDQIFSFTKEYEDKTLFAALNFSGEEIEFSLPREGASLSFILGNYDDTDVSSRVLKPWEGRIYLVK
Description: The test compounds were evaluated for their α-glucosidase inhibitory activity following the methodology outlined by Pistia et al.[62] and Bhatia et al.[63] […] The compounds at varied concentrations ranging from 50 to 200 μg mL^−1 were combined with 50 μL of α-glucosidase (maltase) enzyme solution (1 U mL^−1) from Yeast (Sisco Research Laboratories Pvt. Ltd). The mixer was placed at a temperature of 37 °C for duration of 15 minutes, after the addition of 0.1 M phosphate buffer (pH 6.8). Afterward, 25 μl of substrate buffer was introduced into the system to initiate the reaction, and the incubation was prolonged at a temperature of 37 °C for a length of 15 minutes. Finally, the reaction was stopped by adding 50 μl of a 0.2 M sodium carbonate solution, thereby terminating the processes. The measurement was determined at a wavelength of 450 nm. […] The measurement of enzyme activity was carried out as follows.
The formula for calculating the percentage is (ODblank − ODsample) divided by ODblank, multiplied by 100.
A unit of enzyme may be accurately defined as the amount of α-glucosidase enzyme required to generate one micromole of p-nitrophenol (product) from p-nitrophenyl-α-D-glucopyranoside (substrate) for a time of one minute. The IC50, representing the concentration required to inhibit 50% of the enzyme activity, was determined by fitting a regression equation to a graph that plotted concentration (varying from 50–200 μg mL^−1) on the X-axis and percentage of inhibition on the Y-axis for various fractions and extracts.

α-glucosidase = settings: cited from earlier work
[2] = yeast α-glucosidase (maltase) 1 U mL^−1, phosphate buffer pH 6.8, 37 °C
[3] = yeast α-glucosidase (maltase) 1 U mL^−1, phosphate buffer pH 6.8, 37 °C, read-out: IC50 (α-glucosidase inhibition)
[4] = hydrazine-type compounds, Fig. 1
[5] = compounds with phenyl rings, Fig. 1

Work on O=C(C=Cc1ccccc1)NNC(=O)C(c1ccccc1)C1CCCC1 (centres unmarked) [Compound 6a, N′-(2-Cyclopentyl-2-phenylacetyl)cinnamohydrazide] yielded a pIC50 [1] of 7.10.

For O=C(C=Cc1ccccc1Br)NNC(=O)C(c1ccccc1)C1CCCC1 (centres unmarked) [Compound 6b, 3-(2-Bromophenyl)-N′-(2-cyclopentyl-2-phenylacetyl)acrylohydrazide], the pIC50 [1] was 6.98 and the “IC50 (α-glucosidase inhibition)” value [1, 2] was “moderate inhibition”.

With O=C(C=Cc1cccc(Br)c1)NNC(=O)C(c1ccccc1)C1CCCC1 (centres unmarked) [Compound 6c, 3-(3-Bromophenyl)-N′-(2-cyclopentyl-2-phenylacetyl)acrylohydrazide] the pIC50 [1] was 7.33.

With O=C(C=Cc1ccc(Br)cc1)NNC(=O)C(c1ccccc1)C1CCCC1 (centres unmarked) [Compound 6d, 3-(4-Bromophenyl)-N′-(2-cyclopentyl-2-phenylacetyl)acrylohydrazide] the pIC50 [1] was 7.19.

For Cc1ccc(C=CC(=O)NNC(=O)C(c2ccccc2)C2CCCC2)cc1 (centres unmarked) [Compound 6e, N′-(2-Cyclopentyl-2-phenylacetyl)-3-(p-tolyl)acrylohydrazide], the pIC50 [1] was 6.63 and the “IC50 (α-glucosidase inhibition)” value [1, 2] was “moderate inhibition”.

With O=C(/C=C/c1ccc(F)cc1)NNC(=O)C(c1ccccc1)C1CCCC1 (centres unmarked) [Compound 6f, 3-(4-Fluoro)-N′-(2-cyclopentyl-2-phenylacetyl)acrylohydrazide] the “IC50 (α-glucosidase inhibition)” value [1, 2] was “no inhibition effect”.

Work on O=C(C=Cc1cccc([N+](=O)[O-])c1)NNC(=O)C(c1ccccc1)C1CCCC1 (centres unmarked) [Compound 6g, 3-(3-Nitrophenyl)-N′-(2-cyclopentyl-2-phenylacetyl)acrylohydrazide] yielded a pIC50 [1] of 7.55.

O=C(C=Cc1ccccc1)NNC(=O)C(c1cc(F)c(F)cc1F)C1CCCC1 (centres unmarked) [Compound 7a, N′-(2-cyclopentyl-2-(2,4,5-trifluorophenyl)acetyl)cinnamohydrazide] gave a pIC50 [1] of 7.07.

Cc1ccc(C=CC(=O)NNC(=O)C(c2cc(F)c(F)cc2F)C2CCCC2)cc1 (centres unmarked) [Compound 7b, N′-(2-Cyclopentyl-2-(2,4,5-trifluorophenyl)acetyl)-3-(p-tolyl)acrylohydrazide] showed a pIC50 [1, 3] of 7.84.

Compound O=C(C=Cc1ccc(Br)cc1)NNC(=O)C(c1cc(F)c(F)cc1F)C1CCCC1 (centres unmarked) [Compound 7c, 3-(4-Bromophenyl)-N′-(2-cyclopentyl-2-(2,4,5-trifluorophenyl)acetyl)acrylohydrazide] has a pIC50 [1, 3] of 7.31.

O=C(C=Cc1cccc(Cl)c1)NNC(=O)C(c1cc(F)c(F)cc1F)C1CCCC1 (centres unmarked) [Compound 7d, 3-(3-Chlorophenyl)-N′-(2-cyclopentyl-2-(2,4,5-trifluorophenyl)acetyl)acrylohydrazide] gave a pIC50 [1, 3] of 7.72.

For COc1ccc(C=CC(=O)NNC(=O)C(c2cc(F)c(F)cc2F)C2CCCC2)cc1 (centres unmarked) [Compound 7e, N′-(2-Cyclopentyl-2-(2,4,5-trifluorophenyl)acetyl)-3-(4-methoxyphenyl)acrylohydrazide], the “IC50 (α-glucosidase inhibition)” value [1, 2] was “no effect on inhibition”.

In the case of O=C(C=Cc1cccc(Br)c1)NNC(=O)C(c1cc(F)c(F)cc1F)C1CCCC1 (centres unmarked) [Compound 7f, 3-(3-Bromophenyl)-N′-(2-cyclopentyl-2-(2,4,5-trifluorophenyl)acetyl)acrylohydrazide], the pIC50 [1] was 7.48.

Work on O=C(C=Cc1cccc([N+](=O)[O-])c1)NNC(=O)C(c1cc(F)c(F)cc1F)C1CCCC1 (centres unmarked) [Compound 7g, 3-(3-Nitrophenyl)-N′-(2-cyclopentyl-2-(2,4,5-trifluorophenyl)acetyl)acrylohydrazide] yielded a pIC50 [1] of 7.26.

For CC(C(=O)NN)c1ccc(-c2ccccc2)c(F)c1 (centres unmarked) [III], the pIC50 (α-glucosidase; [4]) is listed as 4.60.

In the case of O=C(/C=C/c1ccc(O)cc1)N1CC(O)C(O)C1 (centres unmarked) [II], the pIC50 (α-glucosidase; deacetylsarmentamide derivative) is listed as 3.26.

In the case of CC(C(=O)NNC(=O)c1cccc(Cl)c1)c1ccc(-c2ccccc2)c(F)c1 (centres unmarked) [IV], the pIC50 (α-glucosidase; [4]) is given as 4.98.

For C=CCc1ccc(OC(=O)/C=C/c2ccc(O)cc2)c(-c2cc(CC=C)ccc2OC(=O)/C=C/c2ccc(O)cc2)c1 [I], the pKi (α-glucosidase; Fig. 1) is given as 5.61 and the pIC50 (α-glucosidase; cinnamic acid magnolol derivative) is given as 5.29.

For O=[N+]([O-])c1ccc2cc(-c3ncc(-c4ccccc4F)o3)oc2c1 [VI], the pIC50 (α-glucosidase; [5]) is given as 4.87.

For Fc1ccccc1/C=N/c1ccc2cn[nH]c2c1 [V], the pIC50 (α-glucosidase; [5]) is given as 5.07.
